Laboratory results taken from ChEMBL document CHEMBL3400127, “Synthesis of 6-[(11)C]methyl-m-tyrosine ([(11)C]6MemTyr) for dopamine synthesis imaging in living brain using PET” (Bioorg Med Chem, 2015).

Experiments:
Details in all cases: in vivo; call rule not given here
[1] = Drug uptake in cynomolgus monkey cortex after 60 to 90 mins by PET imaging analysis; type: ADME, tissue-based, Macaca fascicularis
Brain = test: Drug uptake in cynomolgus monkey brain assessed as dopamine synthesis after 60 to 90 mins by PET imaging analysis in presence of carbidopa; type: ADME, tissue-based, Macaca fascicularis
[2] = Drug uptake in cynomolgus monkey striatum after 40 to 60 mins by PET imaging analysis; type: ADME, tissue-based, Macaca fascicularis
[3] = Drug uptake in cynomolgus monkey cerebellum after 5 mins by PET imaging analysis; type: ADME, Macaca fascicularis
[4] = Drug uptake in cynomolgus monkey cerebellum after 40 to 60 mins by PET imaging analysis; type: ADME, tissue-based, Macaca fascicularis
[5] = Drug uptake in cynomolgus monkey striatum after 60 to 90 mins by PET imaging analysis; type: ADME, tissue-based, Macaca fascicularis
[6] = Drug uptake in cynomolgus monkey cerebellum after 60 to 90 mins by PET imaging analysis; type: ADME, tissue-based, Macaca fascicularis
[7] = Drug uptake in cynomolgus monkey striatum after 10 mins by PET imaging analysis; type: ADME, tissue-based, Macaca fascicularis
[8] = Half life in cynomolgus monkey cerebellum by PET imaging analysis; type: ADME, tissue-based, Macaca fascicularis

Drug uptake [1]	Drug uptake (Brain)	Drug uptake [2]	Drug uptake [3]	Drug uptake [4]	Drug uptake [5]	Drug uptake [6]	Drug uptake [7]	t1/2 [8]	SMILES
Active	Active	Active	Active	Active	Active	Active	Active	50 min	N[C@@H](Cc1cc(O)c(O)cc1[18F])C(=O)O [FLUORODOPA F 18]
Active	Active	Active	Active	Active	Active	Active	Active	30 min	[11CH3]c1ccc(O)cc1C[C@H](N)C(=O)O
